Columns and labels:
TDG [1] = molecular target: T1, TDG (Homo sapiens, UniProt Q13569); test: TDG glycosylase activity in vitro (FIG. 24-25); format: biochemical
SK28 MEL melanoma cells = test: clonogenic assay; format: cell-based
Procedure: (§1) Tests were conducted in quadruplicate.

cancer cells = test: 5caC levels on chemotherapeutic treatment combined with TDG downregulation/inhibition; format: cell-based; conditions: for 5-carboxylcytosine levels, TDG inhibitor combined with temozolomide: combined with temozolomide treatment
Text: Vincristin is an inhibitor of mitosis that arrests cells in metaphase; it is used as a chemotherapeutic agent for leukemia/lymphoma and melanoma.

[2] = tested on: LNCaP prostate cancer cells; test: MTS assay, prostate cancer cells; format: cell-based
Procedure: (§2) The TDG inhibitors, juglone and closantel, were tested for their ability to kill PC3 and LNCaP prostate cancer cells.

[3] = tested on: PC3 prostate cancer cells; test: MTS assay, prostate cancer cells; format: cell-based
Procedure: as §2

[4] = tested on: LNCaP prostate cancer cells; test: clonogenic assay, prostate cancer cells; format: cell-based
Procedure: as §2

[5] = tested on: PC3 prostate cancer cells; test: clonogenic assay, prostate cancer cells; format: cell-based
Procedure: as §2

SK28 cells = test: MTS cell viability assay; format: cell-based; conditions: for cell viability of SK28 cells: concentration-dependent, quadruplicate
Procedure: as §1

SK28 melanoma cells = test: 5-carboxylcytosine (5caC) immunofluorescence staining of cells; format: cell-based; conditions: SK28 melanoma cells treated with compound
TDG [6] = molecular target: T1, TDG; test: molecular beacon qPCR-based assay of TDG glycosylase activity (G:T / G:U repair), library screen; format: biochemical; conditions: 0, 5, 50 and 500 μg/ml
Procedure: (§3) (A) Schematic of the molecular beacon assay for G:T repair.
In the folded hairpin substrate, the fluorescence of 6-FAM, used as fluorescent label at the 5′ end, is quenched by a dabsyl “black hole” moiety at the 3′ end. Upon removal of the mismatched T or U by TDG, and incision of the resulting apurinic/apyrimidinic (AP site) by APE, a short oligonucleotide containing 6-FAM was released. The resulting fluorescence was monitored by real-time qPCR over a 2-hour incubation period at 37° C., providing a sensitive and quantitative measurement of repair activity.
(§4) This assay was optimized for a 96-well and 384-well format. Upon screening the ICCB known bioactive library (approximately 500 compounds) and the Johns Hopkins clinical compound library (approximately 1500 drugs), eighteen and fourteen candidates, respectively (Tables 1 and 2) were identified. Some of these compounds confirmed TDG inhibition in a standard, radioactive-based glycosylase assay (FIG. 19).

TDG [7] = molecular target: T1, TDG; test: standard (conventional) radioactive-based glycosylase assay; format: biochemical; conditions: tested at 100 nM, 10 μM and 1 mM
Text: as §3, §4

[8] = combined with TDG downregulation (C8)

T1 sequence (Q13569 whole entry): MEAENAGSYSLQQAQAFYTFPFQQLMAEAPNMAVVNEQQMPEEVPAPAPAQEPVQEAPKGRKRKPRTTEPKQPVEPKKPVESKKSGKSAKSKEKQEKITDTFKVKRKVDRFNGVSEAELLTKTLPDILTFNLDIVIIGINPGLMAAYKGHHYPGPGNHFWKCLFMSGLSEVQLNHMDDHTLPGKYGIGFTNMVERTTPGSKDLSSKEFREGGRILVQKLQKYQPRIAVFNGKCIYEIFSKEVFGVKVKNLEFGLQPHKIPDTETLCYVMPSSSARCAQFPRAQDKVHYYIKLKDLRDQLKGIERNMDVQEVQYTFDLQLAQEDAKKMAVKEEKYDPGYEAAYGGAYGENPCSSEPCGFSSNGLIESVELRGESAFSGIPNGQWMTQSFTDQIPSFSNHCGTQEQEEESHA

SMILES | inhibition of TDG glycosylase activity in vitro (TDG [1]) | clonogenic capacity of SK28 MEL melanoma cells (SK28 MEL melanoma cells) | 5-carboxylcytosine levels, TDG inhibitor combined with temozolomide (cancer cells) | proliferation of LNCaP cells, MTS assay [2] | proliferation of PC3 cells, MTS assay [3] | proliferation of LNCaP cells, clonogenic assay [4] | proliferation of PC3 cells, clonogenic assay [5] | cell viability of SK28 cells (SK28 cells) | 5caC staining in the nuclei of cells in culture (SK28 melanoma cells) | inhibition of TDG activity, molecular beacon assay for G:T repair (TDG [6]) | 5caC levels, vincristine combined with TDG downregulation (cancer cells; [8]) | 5caC levels, vincristine alone (cancer cells; in the absence of TDG downregulation (pLKO)) | SK28 cell viability, cisplatin combined with TDG downregulation (SK28 cells; [8]) | inhibition of TDG activity, conventional glycosylase assay (TDG [7]) | relative potency in conventional glycosylase assay (TDG [7])
O=C1C=CC(=O)c2c(O)cccc21 [Juglone, 5-hydroxynaphthoquinone] | inhibition of TDG glycosylase activity in vitro | reduction of clonogenic capacity | highly elevated | stopped proliferation | stopped proliferation | stopped proliferation | stopped proliferation | reduce cell viability | increase 5caC staining | Dose dependent inhibition | – | – | – | – | –
CC[C@]1(O)C[C@H]2CN(CCc3c([nH]c4ccccc34)[C@@](C(=O)OC)(c3cc4c(cc3OC)N(C=O)[C@H]3[C@@](O)(C(=O)OC)[C@H](OC(C)=O)[C@]5(CC)C=CCN6CC[C@]43[C@@H]65)C2)C1 [vincristine] | – | – | – | – | – | – | – | – | – | – | further increased | increase of 5caC levels | – | – | –
N.N.[Cl][Pt][Cl] [cisplatin] | – | – | – | – | – | – | – | – | – | – | – | – | reduction of SK28 cell viability | – | –
Cc1cc(C(C#N)c2ccc(Cl)cc2)c(Cl)cc1NC(=O)c1cc(I)cc(I)c1O (stereo not drawn) [Closantel, 5′-Chloro-4′-(4-chloro-α-cyanobenzyl)-3,5-diiodo-2′-methylsalicylanilide, N-[5-Chloro-4-(4-chloro-α-cyanobenzyl)-2-methylphenyl]-2-hydroxy-3,5-diiodobenzamide] | inhibition of TDG glycosylase activity in vitro | reduction of clonogenic capacity | highly elevated | stopped proliferation | stopped proliferation | stopped proliferation | stopped proliferation | reduce cell viability | increase 5caC staining | – | – | – | – | inhibition of TDG activity | –
C=CC1=C(C(=O)O)N2C(=O)[C@@H](NC(=O)/C(=N\OCC(=O)O)c3csc(N)n3)[C@H]2SC1 [Cefixime, (6R,7R)-7-{[2-(2-amino-1,3-thiazol-4-yl)-2-(carboxymethoxyimino)acetyl]amino}-3-ethenyl-8-oxo-5-thia-1-azabicyclo[4.2.0]oct-2-ene-2-carboxylic acid] | – | reduction of clonogenic capacity | – | – | – | – | – | reduce cell viability | – | – | – | – | – | inhibition of TDG activity | more potent than compound 2, closantel
